The values below come from patent US20260022142A1, “MACROCYCLIC IMMUNOMODULATORS” (Bristol-Myers Squibb Company, priority 2022, published 2026).

The term IC50 denotes the concentration at which inhibition is half-maximal.

Numbered stars: 1 amine (or outer) side, 2 acyl side, 3 side chain; on linkers, the order of the positions; unused ones are H or OH. Bridge positions count the residues as written; N and C are the ends. Square brackets hold non-standard residues; d marks the D form. Peptide text beside a SMILES is read from it. * marks the point of attachment. ξ: configuration not given here. Phe(4-CONH2) = NC(=O)c1ccc(C[C@H](N)C(=O)O)cc1; Phe(4-COOH) = N[C@@H](Cc1ccc(C(=O)O)cc1)C(=O)O; Bip = N[C@@H](Cc1ccc(-c2ccccc2)cc1)C(=O)O; Phe(3-Me) = Cc1cccc(C[C@H](N)C(=O)O)c1; Val(3-OH) = CC(C)(O)[C@H](N)C(=O)O; 4Pal = N[C@@H](Cc1ccncc1)C(=O)O; X1 = O=C(CN1CCN([*:1])CC1)[*:2]; Cha = N[C@@H](CC1CCCCC1)C(=O)O; Cit = NC(=O)NCCC[C@H](N)C(=O)O; Thr(3ξ) = CC(O)[C@H](N)C(=O)O; Carboxymethyl = O=C(O)C*; Orn = NCCC[C@H](N)C(=O)O; Aun = NCCCCCCCCCCC(=O)O; Dab = NCC[C@H](N)C(=O)O; Dap = NC[C@H](N)C(=O)O; AEEA = NCCOCCOCC(=O)O

T1 sequence (Q15116 25-288): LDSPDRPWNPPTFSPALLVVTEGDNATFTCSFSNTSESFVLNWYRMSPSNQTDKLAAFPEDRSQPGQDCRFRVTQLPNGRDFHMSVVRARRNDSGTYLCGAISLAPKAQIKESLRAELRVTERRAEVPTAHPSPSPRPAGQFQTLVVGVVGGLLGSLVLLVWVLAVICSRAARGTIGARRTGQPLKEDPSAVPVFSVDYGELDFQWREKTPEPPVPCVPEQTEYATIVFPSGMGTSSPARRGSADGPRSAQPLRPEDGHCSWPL

The assay concerns the target T1, PD-1/PD-L1 interaction (PE-labeled human PD-L1-Ig binding to Jurkat cell line over-expressing human PD-1) (Homo sapiens, UniProt Q15116).
T1 construct: expressed in transfected cells; host or cells: Jurkat
Kind of assay: Jurkat-PD-1 Cell Binding High-Content Screening Assay (CBA). It is filed as cell-based. To be noted: Jurkat cell line over-expressing human PD-1; PE-labeled PD-L1-Ig 20 nM final; read-out: Jurkat hPD1-PDL1 IC50. The procedure, abridged:
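Binding of fluorescent PD-L1-Ig (phycoerythrin on Ig tag, 20 nM final, 1 h) measured by high-content imaging of fixed, Hoechst-counterstained Jurkat-hPD-1 cells. Compound added 2 h at 37° C beforehand, in DMEM with 10% fetal calf serum.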
Take `Cc1cccc(C[C@@H]2NC(=O)[C@H](CC(=O)O)NC(=O)[C@H](Cc3ccc(OCC(=O)O)cc3)NC(=O)[C@H](Cc3ccc(OCC(=O)O)cc3)NC(=O)CSC[C@@H](C(=O)NCC(=O)N[C@@H](CCN)C(=O)NCCCCCCCCCCC(=O)O)NC(=O)[C@H](CO)NC(=O)[C@H](C(C)C)NC(=O)[C@H](CC3CCCCC3)NC(=O)[C@H](CCN)NC(=O)[C@@H](CC(C)C)NC(=O)[C@H](CCCN)NC(=O)[C@H](C(C)C)NC(=O)[C@H](Cc3ccc(-c4ccccc4)cc3)NC(=O)[C@H](CC(C)C)NC2=O)c1` [Compound 1054] ({CH2CO}-Y(Carboxymethyl)Y(Carboxymethyl)D[Phe(3-Me)]L[Bip]V[Orn][dL][Dab][Cha]VSCG[Dab][Aun]-OH; thioether N-14): the IC50 was 31.3 nM. Consider `Cc1cccc(C[C@@H]2NC(=O)[C@H](CC(=O)O)NC(=O)[C@H](Cc3ccc(OCC(=O)O)cc3)NC(=O)[C@H](CN)NC(=O)CSC[C@@H](C(=O)N[C@@H](CCN)C(=O)NCCCCCCCCCCC(N)=O)NC(=O)[C@H]([C@@H](C)O)NC(=O)[C@H](C(C)C)NC(=O)[C@H](CC3CCCCC3)NC(=O)[C@H](CCN)NC(=O)[C@@H](CC(C)C)NC(=O)[C@H](CCCN)NC(=O)[C@H](CCCNC(=N)N)NC(=O)[C@H](Cc3ccc(-c4ccccc4)cc3)NC(=O)[C@H](C(C)C)NC2=O)c1` [Compound 2025] ({CH2CO}-[Dap]Y(Carboxymethyl)D[Phe(3-Me)]V[Bip]R[Orn][dL][Dab][Cha]VTC[Dab][Aun]-NH2; thioether N-14), for which the IC50 is 20.5 nM.

With `Cc1cccc(C[C@@H]2NC(=O)[C@H](CC(=O)O)NC(=O)[C@H](Cc3ccc(OCC(=O)O)cc3)NC(=O)[C@H](Cc3ccncc3)NC(=O)CSC[C@@H](C(=O)N[C@@H](CCN)C(=O)NCCOCCOCC(=O)NCCCCCCCCCCC(=O)O)NC(=O)[C@H](CCC(=O)O)NC(=O)[C@H](C(C)(C)O)NC(=O)[C@H](CC3CCCCC3)NC(=O)[C@H](CCN)NC(=O)[C@@H](CC(C)C)NC(=O)[C@H](CCC(N)=O)NC(=O)[C@H](Cc3ccc(C(=O)O)cc3)NC(=O)[C@H](Cc3ccc(-c4ccccc4)cc3)NC(=O)[C@H](Cc3ccc(C(=O)O)cc3)NC2=O)c1` [Compound 3748] ({CH2CO}-[4Pal]Y(Carboxymethyl)D[Phe(3-Me)][Phe(4-COOH)][Bip][Phe(4-COOH)]Q[dL][Dab][Cha][Val(3-OH)]EC[Dab][AEEA][Aun]-OH; thioether N-14), the IC50 came out at 10.5 nM. In the case of `Cc1cccc(C[C@@H]2NC(=O)[C@H](CC(=O)O)NC(=O)[C@H](Cc3ccc(OCC(=O)O)cc3)NC(=O)[C@H](Cc3ccc(C(N)=O)cc3)NC(=O)CSC[C@@H](C(=O)N[C@@H](CCN)C(=O)NCCCCCCCCCCC(=O)O)NC(=O)[C@H]([C@@H](C)O)NC(=O)[C@H](C(C)C)NC(=O)[C@H](CC3CCCCC3)NC(=O)[C@H](CCN)NC(=O)[C@@H](CC(C)C)NC(=O)[C@H](CCCN)NC(=O)[C@H](CCCNC(N)=O)NC(=O)[C@H](Cc3ccc(-c4ccccc4)cc3)NC(=O)[C@H](C(C)C)NC2=O)c1` [Compound 2827] ({CH2CO}-[Phe(4-CONH2)]Y(Carboxymethyl)D[Phe(3-Me)]V[Bip][Cit][Orn][dL][Dab][Cha]VTC[Dab][Aun]-OH; thioether N-14) it was 13.1 nM; in that of `CC(C)C[C@@H]1NC(=O)[C@H](Cc2c[nH]c3ccccc23)NC(=O)[C@H](CC(=O)O)NC(=O)[C@H](Cc2ccncc2)NC(=O)[C@H](Cc2ccc(OCC(=O)O)cc2)NC(=O)CSC[C@@H](C(=O)N2CCN(CC(=O)NCCCCCCCCCCC(=O)O)CC2)NC(=O)[C@H](C(C)O)NC(=O)[C@H](C(C)C)NC(=O)[C@H](CC2CCCCC2)NC(=O)[C@H](CCN)NC(=O)[C@@H](CC(C)C)NC(=O)[C@H](CCCN)NC(=O)[C@H](C(C)C)NC(=O)[C@H](Cc2ccc(-c3ccccc3)cc2)NC1=O` (stereo partly drawn) [Compound 1225] ({CH2CO}-Y(Carboxymethyl)[4Pal]DWL[Bip]V[Orn][dL][Dab][Cha]V[Thr(3ξ)]C[X1][Aun]-OH; thioether N-14), 171 nM.
